# Literature values, collected in patent publication US20200129471A1, “USE OF CANNABIS TO TREAT FIBROMYALGIA, METHODS AND COMPOSITIONS THEREOF” (ONE WORLD CANNABIS LTD, priority 2015, published 2020).
# Settings: administered to humans for 30 days
compound,measurement,value
"C=C(C)[C@@H]1CCC(C)=C[C@H]1c1c(O)cc(CCCCC)cc1O [CBD, cannabidiol]",tolerability,tolerated
